Calls of active or inactive are those of the source. The rule behind the calls is not given here.
Molecular target: Caspase-3 (Homo sapiens) + Caspase-9 (Homo sapiens) (UniProt P42574+P55211)
Assay: inhibition of LZ-caspase-9 coupled caspase-3 activity – biochemical, fluorescence, selectivity assay for Apaf-1 inhibitor project, SAR follow-up (AID 588577)
Conditions: recombinant LZ-caspase-9 activating caspase-3, fluorogenic substrate

Sequence of Caspase-3 (Homo sapiens) + Caspase-9 (Homo sapiens) (P42574 whole entry, looked up): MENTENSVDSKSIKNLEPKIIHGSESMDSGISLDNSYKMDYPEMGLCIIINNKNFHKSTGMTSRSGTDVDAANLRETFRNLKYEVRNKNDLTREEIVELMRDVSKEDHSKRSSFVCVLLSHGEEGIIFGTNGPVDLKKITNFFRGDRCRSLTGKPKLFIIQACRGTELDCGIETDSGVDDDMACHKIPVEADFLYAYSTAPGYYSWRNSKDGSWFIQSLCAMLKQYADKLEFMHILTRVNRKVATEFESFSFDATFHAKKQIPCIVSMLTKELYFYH
Sequence of Caspase-3 (Homo sapiens) + Caspase-9 (Homo sapiens) (P55211 whole entry, looked up): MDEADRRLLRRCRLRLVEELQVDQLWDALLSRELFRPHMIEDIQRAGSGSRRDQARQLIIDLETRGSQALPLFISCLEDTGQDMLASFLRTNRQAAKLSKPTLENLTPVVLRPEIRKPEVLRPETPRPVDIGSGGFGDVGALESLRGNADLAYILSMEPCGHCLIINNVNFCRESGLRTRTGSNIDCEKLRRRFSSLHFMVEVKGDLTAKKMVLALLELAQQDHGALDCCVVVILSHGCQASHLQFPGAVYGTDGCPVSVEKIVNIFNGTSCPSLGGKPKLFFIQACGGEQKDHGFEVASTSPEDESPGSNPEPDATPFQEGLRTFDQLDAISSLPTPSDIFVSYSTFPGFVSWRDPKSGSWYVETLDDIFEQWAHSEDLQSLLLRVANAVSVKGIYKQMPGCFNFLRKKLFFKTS

SMILES | IC50
CCN(CC)CCOC(=O)c1ccc(N/C=C(/C#N)c2nc(-c3ccc(OC)cc3)cs2)cc1 | > 100 µM (inactive)
O=C(Nc1ccc2nc(-c3cccs3)[nH]c2c1)c1cccs1 | > 100 µM (inactive)
Cn1cc(C(CC(=O)c2ccc(C3CCCCC3)cc2)C(=O)O)c2ccccc21 (stereo not given) | 98.8 µM
CCN(CC)CCOC(=O)c1ccc(N/C=C(\C#N)c2nc(-c3cccs3)cs2)cc1 | > 100 µM (inactive)
O=C1c2cc(Cl)ccc2-n2c1nc1ccccc1c2=O | 89.6 µM
CCN(CC)CCOC(=O)c1ccc(N/C=C(\C#N)c2nc(-c3ccc(Cl)c(Cl)c3)cs2)cc1 | 72 µM
CC(=O)c1ccc(C(=O)Nc2ccc3nc(C)[nH]c3c2)s1 | > 100 µM (inactive)
COc1ccc(N2C(=O)CC3(CC(c4ccc(F)cc4)=NO3)C2=O)cc1 (stereo not given) | 37.5 µM
CCN(CC)CCOC(=O)c1ccc(N/C=C(/C#N)c2nc(-c3ccc4c(c3)OCO4)cs2)cc1 | > 100 µM (inactive)
CCN(CC)CCOC(=O)c1ccc(N/C=C(/C#N)c2nc(-c3cc4ccccc4oc3=O)cs2)cc1 | > 100 µM (inactive)

Next, values leading:

IC50 | SMILES
> 100 µM (inactive) | Cc1nc2ccc(-c3nc4ccc(NC(=O)c5cccs5)cc4[nH]3)cc2[nH]1
85.3 µM | Cn1cc(C(CC(=O)c2ccc(C(C)(C)C)cc2)C(=O)O)c2ccccc21 (stereo not given)
> 100 µM (inactive) | O=C(Nc1ccc2nc(-c3ccc(Br)o3)[nH]c2c1)c1cccs1
> 100 µM (inactive) | O=C(Nc1ccc2c(c1)C(=O)NC2=O)c1nc2ccccc2s1
89.7 µM | Cc1cc(NC(=O)C2CC2)sc1C(=O)Nc1ccc2nc(-c3cc(F)ccc3F)[nH]c2c1
> 100 µM (inactive) | O=C(Nc1ccc(-c2nc3ccc(NC(=O)c4cccs4)cc3[nH]2)cc1)c1cccs1
> 100 µM (inactive) | Cc1ccc(-c2nc3ccc(NC(=O)c4cccs4)cc3[nH]2)o1
> 100 µM (inactive) | Cc1ccc2c(c1)C(=O)c1nc3ccccc3c(=O)n1-2
> 100 µM (inactive) | CCN(CC)CCOC(=O)c1ccc(N/C=C(\C#N)c2nc(-c3ccc(Br)cc3)cs2)cc1
> 100 µM (inactive) | CCN(CC)CCOC(=O)c1ccc(N/C=C(/C#N)c2nc(-c3ccc(OC)c(OC)c3)cs2)cc1

Reference: PubChem BioAssay AID588577 (Sanford-Burnham Center for Chemical Genomics, 2011)
